According to PubChem BioAssay (NCI):
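Cells were grown in 96-well plates and exposed to each compound for 48 hours at five concentrations; endpoints were interpolated linearly between bracketing concentrations, or set to the highest concentration if not reached. At the GI50, growth is halved. The concentration for full growth arrest is given as TGI.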

Legend:
Experiment in all cases: DTP human tumour cell line panel, 48 h
SW-620 colon = system: SW-620 colon
OVCAR-8 ovarian = system: OVCAR-8 ovarian
NCI-H460 lung = system: NCI-H460 lung
HOP-62 NSCLC = system: HOP-62 NSCLC
OVCAR-3 ovarian = system: OVCAR-3 ovarian
SK-MEL-5 melanoma = system: SK-MEL-5 melanoma
EKVX NSCLC = system: EKVX NSCLC
NCI/ADR-RES ovarian = system: NCI/ADR-RES ovarian
HS 578T breast = system: HS 578T breast
A549 NSCLC = system: A549 NSCLC
MDA-MB-435 = system: MDA-MB-435
LOX IMVI melanoma = system: LOX IMVI melanoma
UACC-62 melanoma = system: UACC-62 melanoma
HCT-15 colon = system: HCT-15 colon
MDA-MB-231 breast = system: MDA-MB-231 breast
SF-295 CNS = system: SF-295 CNS
HL-60(TB) leukemia = system: HL-60(TB) leukemia
HCC-2998 colon = system: HCC-2998 colon
SF-268 CNS = system: SF-268 CNS
KM12 colon = system: KM12 colon
UACC-257 melanoma = system: UACC-257 melanoma
NCI-H522 lung = system: NCI-H522 lung
K-562 leukemia = system: K-562 leukemia
DU-145 prostate = system: DU-145 prostate
A498 renal = system: A498 renal
PC-3 prostate = system: PC-3 prostate
IGROV1 ovarian = system: IGROV1 ovarian
SK-MEL-28 melanoma = system: SK-MEL-28 melanoma
ACHN renal = system: ACHN renal
SNB-19 CNS = system: SNB-19 CNS
SK-OV-3 ovarian = system: SK-OV-3 ovarian
CCRF-CEM leukemia = system: CCRF-CEM leukemia
HT29 colon = system: HT29 colon
TK-10 renal = system: TK-10 renal
HOP-92 NSCLC = system: HOP-92 NSCLC
RPMI-8226 leukemia = system: RPMI-8226 leukemia
MCF7 breast = system: MCF7 breast
OVCAR-5 ovarian = system: OVCAR-5 ovarian
U251 CNS = system: U251 CNS
MOLT-4 leukemia = system: MOLT-4 leukemia
T-47D breast = system: T-47D breast
SNB-75 CNS = system: SNB-75 CNS
HCT-116 colon = system: HCT-116 colon
NCI-H23 lung = system: NCI-H23 lung
CAKI-1 renal = system: CAKI-1 renal
SK-MEL-2 melanoma = system: SK-MEL-2 melanoma
SN12C renal = system: SN12C renal
MALME-3M melanoma = system: MALME-3M melanoma
NCI-H226 lung = system: NCI-H226 lung
RXF 393 renal = system: RXF 393 renal
BT-549 breast = system: BT-549 breast
COLO 205 colon = system: COLO 205 colon
SR leukemia = system: SR leukemia
OVCAR-4 ovarian = system: OVCAR-4 ovarian
UO-31 renal = system: UO-31 renal

SMILES: COc1cc2c(/C=C3/C(=O)Nc4c3ccc3ccccc43)c(Cl)n(C)c2cc1C
- GI50 (SW-620 colon): 1110 nM
- TGI (SW-620 colon): 11800 nM
- GI50 (OVCAR-8 ovarian): < 10 nM
- GI50 (NCI-H460 lung): < 18.9 nM
- TGI (NCI-H460 lung): > 28000 nM
- GI50 (HOP-62 NSCLC): 680 nM
- TGI (HOP-62 NSCLC): 16000 nM
- GI50 (OVCAR-3 ovarian): < 26.3 nM
- GI50 (SK-MEL-5 melanoma): 636 nM
- TGI (SK-MEL-5 melanoma): 1300 nM
- GI50 (EKVX NSCLC): 275 nM
- TGI (EKVX NSCLC): 6290 nM
- GI50 (NCI/ADR-RES ovarian): 24.8 nM
- TGI (NCI/ADR-RES ovarian): 62.9 nM
- GI50 (HS 578T breast): 358 nM
- TGI (HS 578T breast): 1890 nM
- GI50 (A549 NSCLC): < 19.3 nM
- TGI (A549 NSCLC): 2010 nM
- GI50 (MDA-MB-435): < 13.2 nM
- TGI (MDA-MB-435): < 19.7 nM
- GI50 (LOX IMVI melanoma): 137 nM
- TGI (LOX IMVI melanoma): 13700 nM
- GI50 (UACC-62 melanoma): 104 nM
- TGI (UACC-62 melanoma): 15400 nM
- GI50 (HCT-15 colon): 899 nM
- TGI (HCT-15 colon): 12600 nM
- GI50 (MDA-MB-231 breast): 53.9 nM
- TGI (MDA-MB-231 breast): 882 nM
- GI50 (SF-295 CNS): < 15.4 nM
- TGI (SF-295 CNS): < 29.1 nM
- GI50 (HL-60(TB) leukemia): 59.7 nM
- TGI (HL-60(TB) leukemia): > 100000 nM
- GI50 (HCC-2998 colon): < 47 nM
- GI50 (SF-268 CNS): < 22.3 nM
- TGI (SF-268 CNS): 18700 nM
- GI50 (KM12 colon): < 15.6 nM
- TGI (KM12 colon): < 30.3 nM
- GI50 (UACC-257 melanoma): < 10 nM
- TGI (UACC-257 melanoma): 29300 nM
- GI50 (NCI-H522 lung): < 10 nM
- TGI (NCI-H522 lung): < 12.6 nM
- GI50 (K-562 leukemia): 194 nM
- TGI (K-562 leukemia): 21500 nM
- GI50 (DU-145 prostate): 235 nM
- TGI (DU-145 prostate): 599 nM
- GI50 (A498 renal): 666 nM
- TGI (A498 renal): 3040 nM
- GI50 (PC-3 prostate): 132 nM
- TGI (PC-3 prostate): 3570 nM
- GI50 (IGROV1 ovarian): 42.4 nM
- TGI (IGROV1 ovarian): 16100 nM
- TGI (SK-MEL-28 melanoma): > 47700 nM
- GI50 (ACHN renal): 400 nM
- TGI (ACHN renal): 19500 nM
- GI50 (SNB-19 CNS): 104 nM
- TGI (SNB-19 CNS): 8450 nM
- GI50 (SK-OV-3 ovarian): 177 nM
- TGI (SK-OV-3 ovarian): 13000 nM
- GI50 (CCRF-CEM leukemia): 73.1 nM
- TGI (CCRF-CEM leukemia): 1060 nM
- GI50 (HT29 colon): < 19.6 nM
- GI50 (TK-10 renal): 378 nM
- TGI (TK-10 renal): 17300 nM
- GI50 (HOP-92 NSCLC): 705 nM
- TGI (HOP-92 NSCLC): 22400 nM
- GI50 (RPMI-8226 leukemia): < 20.4 nM
- GI50 (MCF7 breast): < 17.9 nM
- TGI (OVCAR-5 ovarian): 10500 nM
- GI50 (U251 CNS): 1260 nM
- TGI (U251 CNS): 12800 nM
- GI50 (MOLT-4 leukemia): < 21.6 nM
- TGI (MOLT-4 leukemia): 17300 nM
- GI50 (T-47D breast): 16900 nM
- TGI (T-47D breast): > 100000 nM
- TGI (SNB-75 CNS): 905 nM
- GI50 (HCT-116 colon): < 44 nM
- TGI (NCI-H23 lung): 14700 nM
- GI50 (CAKI-1 renal): < 22.4 nM
- TGI (CAKI-1 renal): 12600 nM
- GI50 (SK-MEL-2 melanoma): < 14.7 nM
- TGI (SK-MEL-2 melanoma): 10100 nM
- GI50 (SN12C renal): 96.2 nM
- TGI (SN12C renal): 3510 nM
- GI50 (MALME-3M melanoma): 156 nM
- TGI (MALME-3M melanoma): 19400 nM
- GI50 (NCI-H226 lung): 1270 nM
- TGI (NCI-H226 lung): 24500 nM
- GI50 (RXF 393 renal): 20.3 nM
- TGI (RXF 393 renal): 2980 nM
- GI50 (BT-549 breast): < 10 nM
- GI50 (COLO 205 colon): 74.6 nM
- TGI (COLO 205 colon): 180 nM
- GI50 (SR leukemia): 38.4 nM
- TGI (SR leukemia): 22200 nM
- GI50 (OVCAR-4 ovarian): 1520 nM
- TGI (OVCAR-4 ovarian): 11600 nM
- GI50 (UO-31 renal): < 18.3 nM
- TGI (UO-31 renal): 6170 nM
